{"source": "patent US20180258404A1", "about": "“METHODS OF GENERATING NEPHRONS FROM HUMAN PLURIPOTENT STEM CELLS” (THE BRIGHAM AND WOMEN'S HOSPITAL, INC., priority 2015, published 2018)", "key": {"[1]": {"system": "NPCs in 3D culture", "test": "Growth factor and small molecule screening in 3D culture (LTL+ tubules)", "type": "cell-based, human", "details": "added in 3D culture from day 10", "method": "FIG. 10. Spontaneous differentiation of SIX2+ cells into nephrons and growth factor screening in 3D culture. (a) Staining with PAX8 and LHX1 in hESCs on day 10 of the differentiation. hESCs were differentiated with CHIR 8 µM for 4 days, activn 10 ng/ml for 3 days, and FGF9 10 ng/ml for 3 days. […] Scale bar: 50 μm. (b) Brighfield imaging for hESCs on day 10 and 21 of the differentiation. FGF9 was withdrawn on day 10, and cells were cultured in the basic medium by day 21. Scale bars: 50 μm. (c) Brightfield and immunocytochemistry for LTL and NPHS1 in hESCs on day 28 of the differentiation. Scale bar: 50 μm. (d) The protocol for growth factor screening. Cells were replated to 3D culture on day 10, and the listed growth factors and small molecules were tested. (e) The number of LTL+ tubules in the organoids. […] (f) Brightfield imaging of 3D co-culture with an ureteric bud cell sphere. Scale bar: 100 μm. (g) Whole-mountstaining for LTL in the organoids on day 16. Scale bar: 100 μm. (h) Immunohistochemistry of the organoids on day 16. Scale bars: 50 μm. LTL: lotus tetragonolobus lectin. NPHS1: Nephrin.\nTo test whether the formation of epithelial structures could be facilitated by 3D culture conditions, on day 10, at the time of FGF9 withdrawal, the Inventors replated NPCs in ultra-low-attachment, round-bottom 96-well plates and cultured them for 1 week. NPCs formed 3D spherical aggregates, one per 96-well, in suspension culture."}, "[2]": {"system": "human embryonic stem cells (hESCs; H9)", "test": "Induction of late primitive streak from hESCs with CHIR", "type": "cell-based", "details": "CHIR 8 μM over 4 days", "method": "hPSCs grown on Geltrex were washed once with PBS (Life Technologies, #10010-049) and dissociated into single cells with Accutase ([…] Technologies, #07920). Cells were then plated at a density of 2-2.4×10^4 (H9) or 1-1.4×10^4 (HDF, 2C) cells/cm^2 onto 24-well tissue culture plates (TPP, #92024) coated with 1% Geltrex in ReproFF2 supplemented with the ROCK inhibitor Y27632 (10 μM) (TOCRIS, #1254) and FGF2 (10 ng/ml). After 72 hours, cells (50% confluent) were briefly washed in PBS and then cultured in basic differentiation medium consisting of Advanced RPMI 1640 (Life Technologies, #12633-020) and 1X L-GlutaMAX (Life Technologies, #35050-061) supplemented with CHIR99021 (8-10 μM) (TOCRIS, #4423) for 4 days to induce late primitive streak cells Noggin (5 ng/ml) was also used for hiPSC differentiation in addition to CHIR (10 μM). To induce posterior intermediate mesoderm, cells were then cultured in Advanced RPMI+1X L-GlutaMAX+activin (10 ng/mL) (R&D, #338-AC-050) for 3 days. For induction of nephron progenitor cells, the media was then changed to Advanced RPMI+1X L-GlutaMAX+FGF9 (10 ng/ml) (R&D, #273-F9-025/CF) for 7 days. CHIR (3 μM) was added to the media from day 9 to 11 of differentiation to induce renal vesicles. On day 14, cells were switched to the basic differentiation medium and cultured for an additional 7 to 14 days (total of 21 to 28 days). […]"}, "[3]": {"system": "NPCs", "test": "Induction of pre-tubular aggregates and renal vesicles from nephron progenitor cells", "type": "cell-based, human", "method": "hPSCs grown on Geltrex were washed once with PBS (Life Technologies, #10010-049) and dissociated into single cells with Accutase ([…] Technologies, #07920). Cells were then plated at a density of 2-2.4×10^4 (H9) or 1-1.4×10^4 (HDF, 2C) cells/cm^2 onto 24-well tissue culture plates (TPP, #92024) coated with 1% Geltrex in ReproFF2 supplemented with the ROCK inhibitor Y27632 (10 μM) (TOCRIS, #1254) and FGF2 (10 ng/ml). After 72 hours, cells (50% confluent) were briefly washed in PBS and then cultured in basic differentiation medium consisting of Advanced RPMI 1640 (Life Technologies, #12633-020) and 1X L-GlutaMAX (Life Technologies, #35050-061) supplemented with CHIR99021 (8-10 μM) (TOCRIS, #4423) for 4 days to induce late primitive streak cells Noggin (5 ng/ml) was also used for hiPSC differentiation in addition to CHIR (10 μM). To induce posterior intermediate mesoderm, cells were then cultured in Advanced RPMI+1X L-GlutaMAX+activin (10 ng/mL) (R&D, #338-AC-050) for 3 days. For induction of nephron progenitor cells, the media was then changed to Advanced RPMI+1X L-GlutaMAX+FGF9 (10 ng/ml) (R&D, #273-F9-025/CF) for 7 days. CHIR (3 μM) was added to the media from day 9 to 11 of differentiation to induce renal vesicles. On day 14, cells were switched to the basic differentiation medium and cultured for an additional 7 to 14 days (total of 21 to 28 days). The medium was replaced every 2 or 3 days. A variety of growth factors and small molecules were tested for differentiation.\nhPSCs on day 9 of differentiation, which represents metanephric mesenchyme cells, were dissociated with Accutase and resuspended in the basic differentiation medium supplemented with CHIR (3 μM) and FGF9 (10 ng/mL), and placed in 96-well, round bottom, ultra-low attachment plates (Corning, #7007) at 1×10^5 cells per well. The plates were centrifuged at 1500 rpm for 15 seconds, and the cells then cultured at 37° C., 5% CO2 for 2 days. The medium was then changed to the basic differentiation medium supplemented with FGF9 10 ng/mL and cultured for 3 more days. […]"}, "[4]": {"system": "hPSC-derived renal vesicles", "test": "Kidney development analysis (Notch inhibition) in kidney organoids", "type": "cell-based, human", "details": "DAPT 10 μM from day 14 to 21, 2D and 3D culture", "method": "FIG. 6. Modeling kidney development and injury in kidney organoids. (a) Schematic for kidney development analysis and nephrotoxicity assay. (b) Representative images of immunohistochemistry in structures derived from hESCs treated with DAPT 10 μM from day 14 to 21. n=4. Notch inhibition suppressed proximal tubule formation. Scale bars: 50 μm. […] Scale bars: 50 μm. […] (d) A low magnification image of gentamicin-treated organoids. Scale bar: 100 μm. CDH1: Cadherin-1 (E-cadherin). PODXL: Podocalyxin-like (Podocalyxin). LTL: lotus tetragonolobus lectin. KIM-1: kidney injury molecule-1. (e) Real-time quantitative PCR of KIM-1 in kidney organoids treated with gentamicin at indicated doses. Data is expressed as mean+/−SEM (n=10). […] Scale bars: 50 μm.\nFIG. 12. Kidney development analysis. (a) DAPT was used to suppress Notch signaling from day 14 to 21. (b) CDH1, PODXL and LTL expression on day 21 in cells derived from hESCs in 2D culture. Scale bars: 50 (c) Percentage of LTL+ nephron structures in control and DAPT-treated on day 21. The nephron number was counted as CDH1+ tubules from 10 fields (×20 magnification) of each sample (n=2). CDH1: Cadherin-1 (E-cadherin). PODXL: Podocalyxin-like (Podocalyxin). […]"}, "[5]": {"system": "ARPKD-iPS organoids", "test": "ARPKD organoid cyst formation in 3D culture", "type": "cell-based, human", "details": "forskolin treatment, 96-well plates, 24 in 24 organoids", "description": "FIG. 26. Autosomal recessive polycystic kidney disease (ARPKD), organoid in 3D culture. This was done in 96-well plates. Cyst formation was 100% (24 in 24 organoids) in ARPKD-iPS with forskolin treatment. PKHD1 mutants were generated with CRISPR. The cystic phenotype appear from very early stage (day 22˜), meaning high-scale drug screening can be done, since media change will be much less frequent."}}}
{"smiles": "Cc1c[nH]c(-c2cnc(NCCNc3ccc(C#N)cn3)nc2-c2ccc(Cl)cc2Cl)n1", "note": "[CHIR, CHIR99021]", "values": [{"measurement": "number of LTL+ tubules in the organoids", "setting": "[1]", "value": "did not significantly increase the number of LTL+ tubules"}, {"measurement": "induction of T+TBX6+ primitive streak cells", "setting": "[2]", "value": "robustly induced and maintained a population of T+TBX6+ primitive streak cells"}, {"measurement": "size of the organoids", "setting": "[3]; 3D culture from day 9, studied on day 14, versus basic medium (ARPMI)", "value": "increased the size of the organoids"}, {"measurement": "number of cells that downregulated SIX2 and co-expressed PAX8 and LHX1", "setting": "[3]; CHIR 3 μM for 2 days from day 9 with FGF9 days 7-14, 2D culture", "value": "markedly increased"}, {"measurement": "PAX8+LHX1+ differentiated cells by flow cytometry", "setting": "[3]; CHIR 3 μM for 2 days from day 9 with FGF9 days 7-14, 2D culture, day 14", "value": "~75.9", "unit": "%"}]}
{"smiles": "C[C@H](NC(=O)Cc1cc(F)cc(F)c1)C(=O)N[C@H](C(=O)OC(C)(C)C)c1ccccc1", "note": "[DAPT]", "values": [{"measurement": "proximal tubule formation", "setting": "[4]", "value": "marked suppression of proximal tubule formation"}]}
{"smiles": "C=C[C@@]1(C)CC(=O)[C@]2(O)[C@@]3(C)[C@@H](O)CCC(C)(C)[C@@H]3[C@H](O)[C@H](OC(C)=O)[C@@]2(C)O1", "note": "[forskolin]", "values": [{"measurement": "cyst formation", "setting": "[5]", "value": 100, "unit": "%"}]}
